Key:
[1] = tested on: hyaluronan synthase type 2 (HAS2); details: in combination with resveratrol; human skin fibroblasts; cited from earlier work
collagen type I = details: in combination with resveratrol; human skin fibroblasts; cited from earlier work
elastin = details: in combination with resveratrol; human skin fibroblasts; cited from earlier work
fibroblasts = assay: Contractile force of fibroblasts in equivalent dermis (Glassbox system); type: cell-based; details: 2.5 ng/ml, positive contraction control
Description: AFU+Si was tested to evaluate the effect on contractile force of fibroblasts in a Glassbox system, when compared to Si and AFU.
An equivalent dermis was developed in a culture box consisting of eight rectangular tanks. In each tank, two flexible blades were plunged, the lower parts of which were made up of grids on which the equivalent dermis clang during its polymerization. The equivalent dermis developed between the two blades to result in a rectangular shape slightly narrowed in the center.
Under the influence of the contraction forces developed by fibroblasts, the blades were deformed. Their deformation was measured in real time using optical fibers and adapted software. The deformation was proportional to the force developed within the equivalent dermis.
Prior to the test for contractile force, different concentrations of products diluted in cellular culture medium were tested for cellular viability. Among these, the following concentrations were chosen for the contractile force test: 0.005%, 0.05%, 0.0005% and 0.0025%.

Compound	expression of hyaluronan synthase type 2 (HAS2) gene [1]	expression of collagen type I gene (collagen type I)	expression of elastin gene (elastin)	contractile forces (fibroblasts)
C[SiH2]O.O=C[C@@H](O)[C@@H](O)[C@H](O)[C@H](O)C(=O)O [methylsilanol mannuronate]	promoting the expression	promoting the expression	promoting the expression	–
TGFβ1: used as a positive contraction control	–	–	–	significant increase in contractile forces
